# In patent US20250090563A1, “COMPOSITION FOR PREVENTION, AMELIORATION OR TREATMENT OF INFLAMMATORY BOWEL DISEASE COMPRISING GALACTO-OLIGOSACCHARIDE” (NEO CREMAR CO., LTD., priority 2022, published 2025):
# How the values were obtained:
# [1] = tested on: mice with DSS-induced colitis; test: Disease activity index (DAI) in DSS-induced acute colitis model; assay type: in vivo, BALB/c mice
# Procedure: For use in this experiment, female BALB/c mice (7 weeks old) were purchased from Saeronbio Inc. (Gyeonggi-do, Korea) and acclimatized for 7 days under SPF conditions at Kyonggi University (temperature 23±2° C., humidity 50±5%, 12-hour light/dark cycle). All experiments adhered to the guidelines of the university's Animal Ethics Committee. An acute colitis model was induced using dextran sodium sulfate (DSS). Mice were divided into seven groups of seven mice each. 1) A normal control group received purified water orally for 28 days. 2) A colitis group received purified water for 28 days and 5% DSS solution freely from days 21 to 28 to induce colitis. […] On the 29th day, each mouse was sacrificed, and the length of the colon and small intestine and the weight of the spleen were measured and evaluated. […] During the DSS treatment, colitis severity was determined using the disease activity index (DAI), which measures weight loss, stool consistency, rectal bleeding, and perianal blood presence according to the criteria in Table 3. After monitoring with the naked eye every two days for eight days, the scores were summed and calculated. […]
# [2] = tested on: mice with DSS-induced colitis; test: Colon length in DSS-induced acute colitis model; assay type: in vivo, BALB/c mice
# Procedure: For use in this experiment, female BALB/c mice (7 weeks old) were purchased from Saeronbio Inc. (Gyeonggi-do, Korea) and acclimatized for 7 days under SPF conditions at Kyonggi University (temperature 23±2° C., humidity 50±5%, 12-hour light/dark cycle). All experiments adhered to the guidelines of the university's Animal Ethics Committee. An acute colitis model was induced using dextran sodium sulfate (DSS). Mice were divided into seven groups of seven mice each. 1) A normal control group received purified water orally for 28 days. 2) A colitis group received purified water for 28 days and 5% DSS solution freely from days 21 to 28 to induce colitis. […] In addition, to colitis-induced mice, the galacto-oligosaccharides from 5) company A and 6) company B were each administered at a dose of 800 mg/kg for 28 days while 7) the positive control group was administered 100 mg/kg of the anti-inflammatory agent 5-ASA (5-aminosalicylic acid) for 28 days. On the 29th day, each mouse was sacrificed, and the length of the colon and small intestine and the weight of the spleen were measured and evaluated. After measurement, the colon tissue was cut into 1 cm lengths, and the cecum was excised and placed into separate Ep. tubes for storage in a deep freezer for future experiments. Portions of the remaining colon tissue were fixed in a 4% formalin solution. […]
# IL-6 = IL-6 level in colon tissue of DSS-induced colitis mice; assay type: in vivo, BALB/c mice
# Procedure: (§1) Mice were divided into seven groups of seven mice each. 1) A normal control group received purified water orally for 28 days. 2) A colitis group received purified water for 28 days and 5% DSS solution freely from days 21 to 28 to induce colitis. The galacto-oligosaccharide of the present disclosure was administered at a dose of 3) 400 mg/kg and 4) 800 mg/kg to two groups of colitis-induced mice, respectively, for 28 days. In addition, to colitis-induced mice, the galacto-oligosaccharides from 5) company A and 6) company B were each administered at a dose of 800 mg/kg for 28 days while 7) the positive control group was administered 100 mg/kg of the anti-inflammatory agent 5-ASA (5-aminosalicylic acid) for 28 days. On the 29th day, each mouse was sacrificed, and the length of the colon and small intestine and the weight of the spleen were measured and evaluated. After measurement, the colon tissue was cut into 1 cm lengths, and the cecum was excised and placed into separate Ep. tubes for storage in a deep freezer for future experiments. […]
# (§2) First, colon tissue samples were suspended in PBS containing a protease inhibitor (Roche Diagnostics Corp., Indianapolis, IN, USA) and homogenized uniformly using a TaKaRa BioMasher (Takara Bio Inc., Shiga, Japan). […] Protein concentration was quantified using a bicinchoninic acid kit (Thermo Scientific, Waltham, MA, USA).
# [3] = tested on: mucin and goblet cells in the colon; test: Histological analysis of colon (Alcian blue-PAS staining) in DSS-induced colitis mice; assay type: in vivo, BALB/c mice; settings: colon sections, FIG. 9; dose not stated
# myeloperoxidase (MPO) = test: MPO level in colon tissue of DSS-induced colitis mice; assay type: in vivo, BALB/c mice; settings: 100 mg/kg for 28 days (positive control)
# Procedure: as §1, §2
# TNF-α = TNF-α level in colon tissue of DSS-induced colitis mice; assay type: in vivo, BALB/c mice
# Procedure: as §1, §2
# [4] = tested on: intestinal short chain fatty acids; test: Short chain fatty acid (SCFA) production in cecum of DSS-induced mice (GC); assay type: in vivo
# Procedure: To determine the effect of administering the galacto-oligosaccharide of the present disclosure on the intestinal short chain fatty acids in DSS-induced mice, 5-ASA and the GOS of the present disclosure were administered at low (7 mg/mouse), medium (14 mg/mouse), and high (21 mg/mouse) concentrations to DSS-induced mice according to the schedule described in Example 3-1. Afterward, the cecums of the mice were collected, homogenized with a homogenizer, and suspended in 80% methanol. The samples were then centrifuged at 13,000 rpm for 10 minutes, diluted to a final concentration of 1 g/mL, and filtered through a 0.45 μm syringe filter. Quantitative analysis of SCFAs was performed by preparing each STD at different concentrations and using 2-ethylbutyric acid as the internal standard (ISTD). The standard curves were calculated based on the peak area ratios. In brief, the SCFA content was measured using gas chromatography (GC) equipped with a DB-FFAP capillary column to determine the production capacity of six SCFAs (acetic acid, propionic acid, butyric acid, valeric acid, caproic acid, and heptanoic acid). The GC analysis conditions were as follows: 100° C. (0.5 min), 100° C.→180° C. (8° C./min), 180° C. (1.0 min), 180° C.→200° C. (20° C./min), 200° C. (5.0 min).
# [5] = 100 mg/kg (positive control), DSS colitis mice
# [6] = 100 mg/kg for 28 days (positive control), 5% DSS days 21-28
# [7] = 100 mg/kg for 28 days (positive control), DSS colitis
# [8] = PC, dose 100 mg/kg, DSS-induced mice
smiles,measurement,setting,value
"Nc1ccc(O)c(C(=O)O)c1 [5-ASA, 5-aminosalicylic acid]","Colitis amelioration effect (DAI), in words",[1]; [5],did not show any colitis amelioration effect
same,Disease Activity Index of 8 day (Score),[1]; [6],10.3 Score
same,"Inhibition of the reduction of colon length, in words",[2]; [5],showed an efficacy in inhibiting the reduction of colon length
same,Colon length,[2]; [6],5.2 cm
same,"Level of IL-6 versus DSS group, in words",IL-6; [5],greatly reduced
same,IL-6,IL-6; [7],12 pg/mg
same,Amount of mucin (Alcian blue-PAS) compared to the DSS-treated group,[3],the amount of mucin recovered
same,Goblet cells compared to the DSS-treated group,[3],goblet cells were observed
same,MPO,myeloperoxidase (MPO),45 pg/mg
same,"Level of TNF-α versus DSS group, in words",TNF-α; [5],greatly reduced
same,TNF-α,TNF-α; [7],100 pg/mg
same,"All SCFAs except acetic acid compared to the NC treated with 5% DSS alone, in words","[4]; PC group, cecum",slight increase
same,"Acetic acid, share of total SCFA (value in parentheses)",[4]; [8],73.3
same,"Acetic acid, short chain fatty acid production in cecum",[4]; [8],8917 µM
same,"Butyric acid, share of total SCFA (value in parentheses)",[4]; [8],15.8
same,"Butyric acid, short chain fatty acid production in cecum",[4]; [8],1923 µM
same,"Propionic acid, share of total SCFA (value in parentheses)",[4]; [8],10.9
same,"Propionic acid, short chain fatty acid production in cecum",[4]; [8],1321 µM
same,"Total SCFA, share of total SCFA (value in parentheses)",[4]; [8],100
same,"Total SCFA, short chain fatty acid production in cecum",[4]; [8],12161 µM
